Laboratory results from ChEMBL document CHEMBL4840351 (J Med Chem, 2021).

Legend:
[1] = test system: TMD8; experiment: Antitumor activity against human TMD8 cells xenografted in CB-17 SCID nude mouse assessed as tumor growth inhibition at 7.5 mg/kg, po bid administered for 21 days; assay type: functional; details: 504 h, time 21 day, read-out: TGI
[2] = test system: TMD8; experiment: Induction of apoptosis in human TMD8 cells at 3000 nM incubated for 72 hrs by Annexin V-FITC/PI staining based flow cytometric analysis (reference value: 13.4 %); assay type: functional
[3] = target: Tyrosine-protein kinase BTK (Homo sapiens, UniProt Q06187); experiment: Inhibition of full-length N-terminal GST tagged BTK (2 to 659 residues) (unknown origin) expressed in Sf21 insect cells using NH2-ETVYSEVRK-biotin as substrate preincubated for 1 hr followed by ATP addition and measured after 2 hrs by ELISA
Tyrosine-protein kinase BTK, sequence (Q06187 whole entry, the tested form may be a part): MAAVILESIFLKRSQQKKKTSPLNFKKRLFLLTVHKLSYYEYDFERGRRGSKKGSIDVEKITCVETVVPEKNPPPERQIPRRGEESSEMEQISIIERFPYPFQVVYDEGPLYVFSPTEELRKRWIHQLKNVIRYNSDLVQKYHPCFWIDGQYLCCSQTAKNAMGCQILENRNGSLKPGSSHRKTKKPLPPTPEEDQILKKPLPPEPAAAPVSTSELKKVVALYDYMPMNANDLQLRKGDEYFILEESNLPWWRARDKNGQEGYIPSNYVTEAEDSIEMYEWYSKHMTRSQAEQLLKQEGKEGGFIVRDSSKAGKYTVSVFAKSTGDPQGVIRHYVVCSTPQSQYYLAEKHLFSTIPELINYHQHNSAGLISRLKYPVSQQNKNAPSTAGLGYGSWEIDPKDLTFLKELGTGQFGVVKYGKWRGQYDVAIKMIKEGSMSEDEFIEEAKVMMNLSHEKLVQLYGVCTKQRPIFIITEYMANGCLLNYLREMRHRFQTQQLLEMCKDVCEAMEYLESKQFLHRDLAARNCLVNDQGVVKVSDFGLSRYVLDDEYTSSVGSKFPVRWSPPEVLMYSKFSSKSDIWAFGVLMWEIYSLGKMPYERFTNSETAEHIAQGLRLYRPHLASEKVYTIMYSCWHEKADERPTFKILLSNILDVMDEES

C=CC(=O)N1CCCC[C@H]1c1nc(-c2ccc(C(=O)Nc3cc(C(F)(F)F)ccn3)cc2)c(C(N)=O)n1N was tested, and the inhibition in vivo at 7.5 mg/kg [1] was 96%, the Activity [2] was 68.4% and the IC50 [3] was 2.7 nM.
